Experiments:
[1] = tested on: PNA-array linker-spacer-CGN1N2TCCG-NH2; assay: Hybridization of fluorescein-labeled DNA-receptor to 16-element PNA-array on patterned porous coating (epifluorescence); type: binding; details: 10 μM in 6×SSPE, 10 minutes at room temperature; 10× objective, 15 seconds exposure
Protocol: A patterned porous coating comprising a 4×4 array of 600 μm×600 μm porous squares was prepared as described in Example 19, and coupled with amino-linker molecules using the method described in Example 20. The PNA-array was then synthesized on the surface of the patterned porous coating with each array element occupying one 600 μm×600 μm porous square. Each element of the array comprised one of the 16 possible combinations of the sequence, linker-spacer-CGN1N2TCCG-NH2, where N1 and N2 may independently be A, G, C, or T. The position of each element in the array, as referenced by the N1N2 sequence, is shown in the array schematics of FIGS. 6A and 6B. […]
The fluorescence image of the porous coating was captured at room temperature using a 35 mm camera attached to a Standard Epifluorescence Microscope. The fluorescence image of FAA bound at the predicted array element is readily detected and visualized using an objective magnification of 10× and an exposure time of 15 seconds (see FIG. 6 and corresponding surface plot).
Bound FAA was dissociated from the PNA-array by immersing the slide in 90° C. water, and the hybridization repeated with FTA using conditions as described above for FAA. The fluorescence image of the FTA hybridization was captured with the 10× objective of a Standard Epifluorescence Microscope with attached 35 mm camera. […]

[2] = tested on: surface-bound DNA-ligand 5′-GCCTACGC-3′; assay: Hybridization of fluorescein-labeled DNA-receptor to DNA-ligand synthesized on patterned porous coating (epifluorescence); type: binding; details: 10 μM in 6×SSPE, 1 hour at 4° C., wash at 15° C.; 10× objective, 15 seconds exposure
Protocol: Using the DNA synthesizer to automatically deliver reagents, the DNA-ligand with the sequence 5′-[…]-3′ was synthesized via eight phosphoramidite couplings on the exposed hydroxyl groups beginning with the 3′ end. Following synthesis, the reactor system was separated from the DNA synthesizer, and the phosphate and exocyclic amine protecting groups removed by manually applying 0.05 M potassium carbonate in methanol to the reactor cavity for 2 hours at room temperature. […]
The 6×SSPE solution is a high-salt buffer with a pH of 7.4 comprising 1M NaCl, 66 mM NaH2PO4/Na2HPO4, 6 mM EDTA, and 0.05° Triton X-100-™ The slide was subsequently washed in 6×SSPE at a temperature of 15° C., and mounted on a modified microscope stage attached to a Standard Epifluorescence Microscope The stage contained an aqueous gel within its interior that was chilled to approximately 4° C. prior to image acquisition. The fluorescence image of FTA hybridized to the porous coating was captured using a 35 mm camera attached to the microscope. […]
Following hybridization, the slide was washed in 6×SSPE at a temperature of 15° C. and mounted on the modified stage as described above. The fluorescence image of the FAA hybridization was captured with the 10× objective of a Standard Epifluorescence Microscope with attached 35 mm camera. […]

[3] = target: T1, angiotensin converting enzyme (ACE) (Homo sapiens, UniProt P12821); details: as reported by Patchett et al.; read-out: IC50 (binding affinity for ACE); cited from earlier work
[4] = target: T1, angiotensin converting enzyme (ACE); assay: ACE inhibitory activity, functional assay with substrate FAPGG (absorbance at 328 nm); type: biochemical; details: 10 nM ACE, 50 μM FAPGG
Protocol: Each assay mixture contained 10 nM ACE, 50 μM FAPGG, 50 mM Tris (pH 8.3), 300 mM NaCl, and 20-40 μl of each of the above analogue solutions in a total reaction volume of 50 μl. The above mixture without analogue served as the negative control for inhibitory activity. […] Each reaction was initiated by adding 5 μl of 500 μM FAPGG to 45 μl of the remaining assay components in a 100 μl cuvette. The temporal progress of each reaction was monitored by measuring the absorbance at 328 nm every 15 seconds.
The percent ACE inhibition is expressed as the percent decrease in initial velocity relative to the initial velocity of the negative control. […] Compositions are referenced by R1 and R2 groups as defined in Table XI.

T1 sequence (P12821 30-1306, species assumed): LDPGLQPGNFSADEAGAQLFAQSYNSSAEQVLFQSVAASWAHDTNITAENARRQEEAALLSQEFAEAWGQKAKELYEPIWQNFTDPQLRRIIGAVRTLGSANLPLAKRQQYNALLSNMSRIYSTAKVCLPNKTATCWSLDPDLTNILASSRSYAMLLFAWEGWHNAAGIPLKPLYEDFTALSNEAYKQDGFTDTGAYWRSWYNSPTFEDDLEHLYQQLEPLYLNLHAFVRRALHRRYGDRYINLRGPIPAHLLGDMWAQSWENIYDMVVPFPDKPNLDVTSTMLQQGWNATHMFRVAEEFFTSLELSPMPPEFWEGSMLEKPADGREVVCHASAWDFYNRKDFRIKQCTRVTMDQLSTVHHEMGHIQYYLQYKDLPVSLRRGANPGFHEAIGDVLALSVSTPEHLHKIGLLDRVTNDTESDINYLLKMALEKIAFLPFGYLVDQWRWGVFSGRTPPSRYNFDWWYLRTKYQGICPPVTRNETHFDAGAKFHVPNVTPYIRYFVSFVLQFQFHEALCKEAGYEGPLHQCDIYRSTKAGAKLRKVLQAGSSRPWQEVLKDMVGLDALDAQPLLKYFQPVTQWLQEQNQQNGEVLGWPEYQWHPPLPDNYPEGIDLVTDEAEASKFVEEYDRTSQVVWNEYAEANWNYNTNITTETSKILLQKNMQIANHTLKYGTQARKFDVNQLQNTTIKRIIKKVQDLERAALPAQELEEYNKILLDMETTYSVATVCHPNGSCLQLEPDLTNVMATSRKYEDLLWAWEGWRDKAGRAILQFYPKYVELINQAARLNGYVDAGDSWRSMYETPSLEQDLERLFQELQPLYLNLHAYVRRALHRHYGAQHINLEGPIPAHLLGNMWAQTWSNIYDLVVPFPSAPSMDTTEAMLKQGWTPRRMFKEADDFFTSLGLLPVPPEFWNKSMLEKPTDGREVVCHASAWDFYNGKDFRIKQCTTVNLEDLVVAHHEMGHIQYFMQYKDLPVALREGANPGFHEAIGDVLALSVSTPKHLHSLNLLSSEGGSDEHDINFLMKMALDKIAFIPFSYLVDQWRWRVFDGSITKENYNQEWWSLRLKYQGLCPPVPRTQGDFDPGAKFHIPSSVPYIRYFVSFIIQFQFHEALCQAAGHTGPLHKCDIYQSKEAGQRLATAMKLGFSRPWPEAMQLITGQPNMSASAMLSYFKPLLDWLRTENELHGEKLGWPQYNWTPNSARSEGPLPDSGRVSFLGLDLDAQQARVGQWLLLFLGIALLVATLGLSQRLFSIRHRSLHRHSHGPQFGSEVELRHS

percent ACE inhibition (percent decrease in initial velocity relative to the negative control) ([4]; analogue cleaved from one array element of a 1 μm thick porous coat, pH 8.3) | initial velocity ([4]; positive control, 250 nM lisinopril) | Compound | specificity of hybridization to PNA-array [1] | fluorescence image of hybridized DNA-receptor [2] | IC50 [3]
 |  | 5′-GCGAAGGC-fluorescein [FAA] | hybridizes specifically to its complementary PNA sequence with little or no signal from other array elements | equivalent to the images with no receptor | 
35% |  | CC(NC(Cc1ccccc1)C(=O)O)C(=O)N1CCCC1C(=O)O (stereo not shown) [R1a+R2a] |  |  | 39 nM
 |  | 5′-GCGTAGGC-fluorescein [FTA] | hybridizes specifically to its complementary PNA sequence with little or no signal from other array elements | readily visible | 
 | zero | NCCCC[C@H](N[C@@H](CCc1ccccc1)C(=O)O)C(=O)N1CCC[C@H]1C(=O)O [lisinopril] |  |  | 

— patent US6951682B1, “Porous coatings bearing ligand arrays and use thereof” (Syntrix Biochip, Inc., priority 1998, dated 2005)
